The target in experiment [1] is Tyrosine-protein kinase Lck (Homo sapiens) (UniProt P06239). The experiment can be described thus: Inhibition of wild-type human partial length LCK (R207 to P509 residues) expressed in bacterial expression system assessed as residual activity at 1 uM by Kinomescan method relative to control.
Experiment [2] deals with T1, Mitogen-activated protein kinase kinase kinase kinase 3 (Homo sapiens) (UniProt Q8IVH8).
T1 sequence (whole entry): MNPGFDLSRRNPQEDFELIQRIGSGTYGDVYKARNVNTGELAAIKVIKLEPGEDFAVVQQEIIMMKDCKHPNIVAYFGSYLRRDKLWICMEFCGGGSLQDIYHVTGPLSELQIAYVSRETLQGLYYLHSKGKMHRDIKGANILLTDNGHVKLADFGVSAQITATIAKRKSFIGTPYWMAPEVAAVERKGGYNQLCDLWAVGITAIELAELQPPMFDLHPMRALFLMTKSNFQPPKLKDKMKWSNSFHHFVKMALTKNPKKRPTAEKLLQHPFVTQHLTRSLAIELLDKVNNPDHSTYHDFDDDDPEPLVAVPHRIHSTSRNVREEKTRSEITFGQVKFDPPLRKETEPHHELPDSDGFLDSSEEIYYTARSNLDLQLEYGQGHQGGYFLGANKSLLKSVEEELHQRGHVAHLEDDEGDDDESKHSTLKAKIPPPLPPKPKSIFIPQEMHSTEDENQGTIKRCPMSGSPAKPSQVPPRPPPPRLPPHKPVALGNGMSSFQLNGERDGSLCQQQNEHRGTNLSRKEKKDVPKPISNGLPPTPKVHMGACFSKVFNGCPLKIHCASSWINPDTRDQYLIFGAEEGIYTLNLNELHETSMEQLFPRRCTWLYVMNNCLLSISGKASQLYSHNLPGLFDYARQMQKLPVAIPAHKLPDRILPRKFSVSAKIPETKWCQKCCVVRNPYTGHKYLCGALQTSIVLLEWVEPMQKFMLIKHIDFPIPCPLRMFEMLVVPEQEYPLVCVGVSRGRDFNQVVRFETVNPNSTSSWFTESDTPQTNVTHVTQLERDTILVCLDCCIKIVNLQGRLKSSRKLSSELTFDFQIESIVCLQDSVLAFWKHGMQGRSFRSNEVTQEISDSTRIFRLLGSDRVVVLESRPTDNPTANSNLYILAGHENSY
Put plainly: Inhibition of wild-type human partial length MAP4K3 (M1 to D301 residues) expressed in bacterial expression system assessed as residual activity at 1 uM by Kinomescan method relative to control.

In experiment [3] the target is CDK4/Cyclin D3 (Homo sapiens) (UniProt P11802+P30281). Put plainly: Inhibition of wild-type human full length CDK4/cyclinD3 (M1 to E303 residues) expressed in mammalian expression system assessed as residual activity at 1 uM by Kinomescan method relative to control.
In experiment [4] the target is Phosphorylase b kinase gamma catalytic chain, liver/testis isoform (Homo sapiens) (UniProt P15735). Put plainly: Inhibition of wild-type human partial length PHKG2 (M1 to W300 residues) expressed in bacterial expression system assessed as residual activity at 1 uM by Kinomescan method relative to control.
Experiment [5] addresses 3-phosphoinositide-dependent protein kinase 1 (Homo sapiens) (UniProt O15530). Put plainly: Inhibition of PDK1 (unknown origin) assessed as residual activity at 1 uM by Kinomescan method relative to control.
In experiment [6] the target is LIM domain kinase 2 (Homo sapiens) (UniProt P53671). Put plainly: Inhibition of wild-type human full length LIMK2 (M1 to P638 residues) expressed in bacterial expression system assessed as residual activity at 1 uM by Kinomescan method relative to control.
The target of experiment [7] is Mitogen-activated protein kinase 10 (Homo sapiens) (UniProt P53779). The experiment can be described thus: Inhibition of wild-type human partial length JNK3 (V28 to Q422 residues) expressed in mammalian expression system assessed as residual activity at 1 uM by Kinomescan method relative to control.
For experiment [8], the target named is ALK tyrosine kinase receptor (Homo sapiens) (UniProt Q9UM73). The experiment can be described thus: Inhibition of wild-type human partial length ALK (I1088 to E1409 residues) expressed in mammalian expression system assessed as residual activity at 1 uM by Kinomescan method relative to control.
Experiment [9] addresses Serine/threonine-protein kinase tousled-like 1 (Homo sapiens) (UniProt Q9UKI8). Put plainly: Inhibition of wild-type human partial length TLK1 (K447 to A754 residues) expressed in bacterial expression system assessed as residual activity at 1 uM by Kinomescan method relative to control.
In experiment [10] the target is Casein kinase I isoform delta (Homo sapiens) (UniProt P48730). The experiment can be described thus: Inhibition of CK1D (unknown origin) assessed as residual activity at 1 uM by Kinomescan method relative to control.
Experiment [11] concerns the target CDK1/Cyclin E (Homo sapiens) (UniProt P06493+P24864). The experiment can be described thus: Inhibition of CDK1/Cyclin E (unknown origin) assessed as residual activity at 1 uM by Kinomescan method relative to control. It counts as protein-complex assay.
Experiment [12] deals with Serine/threonine-protein kinase WNK3 (Homo sapiens) (UniProt Q9BYP7). Put plainly: Inhibition of wild-type human partial length WNK3 (M1 to D434 residues) expressed in mammalian expression system assessed as residual activity at 1 uM by Kinomescan method relative to control.
Experiment [13] deals with Serine/threonine-protein kinase N3 (Homo sapiens) (UniProt Q6P5Z2). The experiment can be described thus: Inhibition of PKN3 (unknown origin) assessed as residual activity at 1 uM by Kinomescan method relative to control.
Experiment [14] has as its target Tyrosine-protein kinase Lyn (Homo sapiens) (UniProt P07948). The experiment can be described thus: Inhibition of human LYN B assessed as residual activity at 1 uM by Kinomescan method relative to control.
Experiment [15] addresses Tyrosine-protein kinase receptor UFO (Homo sapiens) (UniProt P30530). Put plainly: Inhibition of wild-type human partial length AXL (R497 to Y821 residues) expressed in bacterial expression system assessed as residual activity at 1 uM by Kinomescan method relative to control.
For experiment [16], the target named is Macrophage-stimulating protein receptor (Homo sapiens) (UniProt Q04912). Put plainly: Inhibition of wild-type human partial length MST1R (I1057 to L1363 residues) expressed in bacterial expression system assessed as residual activity at 1 uM by Kinomescan method relative to control.
Experiment [17] addresses STE20-like serine/threonine-protein kinase (Homo sapiens) (UniProt Q9H2G2). Put plainly: Inhibition of wild-type human partial length SLK (S14 to A307 residues) expressed in bacterial expression system assessed as residual activity at 1 uM by Kinomescan method relative to control.
Experiment [18] has as its target Calcium/calmodulin-dependent protein kinase type 1D (Homo sapiens) (UniProt Q8IU85). The experiment can be described thus: Inhibition of wild-type human partial length CAMK1D (M1 to K299 residues) expressed in bacterial expression system assessed as residual activity at 1 uM by Kinomescan method relative to control.
Experiment [19] concerns the target Inhibitor of nuclear factor kappa-B kinase subunit epsilon (Homo sapiens) (UniProt Q14164). Put plainly: Inhibition of wild-type human full length IKK-epsilon (M1 to V716 residues) expressed in mammalian expression system assessed as residual activity at 1 uM by Kinomescan method relative to control.

Chain of Mitogen-activated protein kinase 10 (Homo sapiens) (P53779 whole entry, the tested form may be a part): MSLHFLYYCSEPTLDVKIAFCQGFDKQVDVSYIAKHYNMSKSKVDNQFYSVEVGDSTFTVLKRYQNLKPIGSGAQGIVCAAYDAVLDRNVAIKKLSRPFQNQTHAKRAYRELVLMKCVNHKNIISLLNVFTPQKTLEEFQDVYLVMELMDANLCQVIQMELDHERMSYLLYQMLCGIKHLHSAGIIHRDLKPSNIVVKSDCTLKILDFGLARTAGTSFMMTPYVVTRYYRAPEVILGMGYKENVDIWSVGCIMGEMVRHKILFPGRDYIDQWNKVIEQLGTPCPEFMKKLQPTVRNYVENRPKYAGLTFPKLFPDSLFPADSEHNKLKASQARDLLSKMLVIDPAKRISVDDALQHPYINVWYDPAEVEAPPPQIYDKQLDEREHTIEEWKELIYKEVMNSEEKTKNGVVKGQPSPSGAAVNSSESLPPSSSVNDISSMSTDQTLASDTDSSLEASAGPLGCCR
Chain of Tyrosine-protein kinase Lck (Homo sapiens) (P06239 2-509 limits assumed): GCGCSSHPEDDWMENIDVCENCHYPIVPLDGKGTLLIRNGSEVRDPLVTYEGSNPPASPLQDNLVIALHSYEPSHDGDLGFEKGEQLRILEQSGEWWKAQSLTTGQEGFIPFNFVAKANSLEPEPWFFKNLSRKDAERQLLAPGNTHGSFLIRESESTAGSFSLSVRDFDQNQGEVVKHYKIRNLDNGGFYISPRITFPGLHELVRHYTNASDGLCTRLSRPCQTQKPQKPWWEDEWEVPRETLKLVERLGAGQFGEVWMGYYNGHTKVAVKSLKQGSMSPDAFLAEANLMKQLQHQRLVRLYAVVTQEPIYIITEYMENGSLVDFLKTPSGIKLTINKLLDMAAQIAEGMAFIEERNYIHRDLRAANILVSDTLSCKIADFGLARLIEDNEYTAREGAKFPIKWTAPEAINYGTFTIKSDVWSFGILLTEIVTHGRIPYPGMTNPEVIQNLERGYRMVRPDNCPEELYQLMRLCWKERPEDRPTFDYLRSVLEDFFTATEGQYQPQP
Chain of Serine/threonine-protein kinase N3 (Homo sapiens) (Q6P5Z2 whole entry, looked up): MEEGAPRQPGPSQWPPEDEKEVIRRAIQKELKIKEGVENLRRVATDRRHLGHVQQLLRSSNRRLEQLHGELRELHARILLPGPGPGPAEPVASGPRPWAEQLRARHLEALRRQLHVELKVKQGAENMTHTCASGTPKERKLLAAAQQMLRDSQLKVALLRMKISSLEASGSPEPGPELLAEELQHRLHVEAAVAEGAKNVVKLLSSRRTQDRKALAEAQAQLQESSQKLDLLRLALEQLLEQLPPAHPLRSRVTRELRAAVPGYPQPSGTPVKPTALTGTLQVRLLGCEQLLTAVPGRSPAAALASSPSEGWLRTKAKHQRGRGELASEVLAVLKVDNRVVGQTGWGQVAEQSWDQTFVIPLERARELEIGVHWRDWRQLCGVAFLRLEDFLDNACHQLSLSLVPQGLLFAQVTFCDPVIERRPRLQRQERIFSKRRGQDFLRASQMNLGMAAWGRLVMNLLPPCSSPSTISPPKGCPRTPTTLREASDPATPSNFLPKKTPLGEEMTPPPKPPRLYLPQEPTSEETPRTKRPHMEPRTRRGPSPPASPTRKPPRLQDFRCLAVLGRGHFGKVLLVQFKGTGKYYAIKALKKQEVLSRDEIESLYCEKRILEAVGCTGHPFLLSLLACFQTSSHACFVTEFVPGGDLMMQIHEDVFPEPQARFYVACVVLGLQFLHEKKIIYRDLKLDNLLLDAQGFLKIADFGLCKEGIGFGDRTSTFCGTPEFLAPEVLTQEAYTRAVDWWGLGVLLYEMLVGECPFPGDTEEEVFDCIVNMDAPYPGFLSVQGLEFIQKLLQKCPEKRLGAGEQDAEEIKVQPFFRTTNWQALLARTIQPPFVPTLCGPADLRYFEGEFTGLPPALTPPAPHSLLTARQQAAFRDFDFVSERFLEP
Chain of Phosphorylase b kinase gamma catalytic chain, liver/testis isoform (Homo sapiens) (P15735 whole entry, the tested form may be a part, canonical isoform): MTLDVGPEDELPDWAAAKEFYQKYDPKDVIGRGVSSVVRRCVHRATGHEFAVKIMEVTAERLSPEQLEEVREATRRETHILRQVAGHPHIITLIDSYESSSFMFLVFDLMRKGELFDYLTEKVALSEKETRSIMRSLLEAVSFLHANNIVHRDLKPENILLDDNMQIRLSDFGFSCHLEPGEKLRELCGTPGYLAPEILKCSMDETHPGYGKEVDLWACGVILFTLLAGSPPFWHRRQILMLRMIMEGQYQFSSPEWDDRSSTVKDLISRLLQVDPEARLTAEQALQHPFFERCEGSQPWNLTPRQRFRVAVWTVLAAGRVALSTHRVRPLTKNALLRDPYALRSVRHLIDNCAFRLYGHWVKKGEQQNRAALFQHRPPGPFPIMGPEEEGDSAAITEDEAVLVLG
Chain of Inhibitor of nuclear factor kappa-B kinase subunit epsilon (Homo sapiens) (Q14164 whole entry, the tested form may be a part): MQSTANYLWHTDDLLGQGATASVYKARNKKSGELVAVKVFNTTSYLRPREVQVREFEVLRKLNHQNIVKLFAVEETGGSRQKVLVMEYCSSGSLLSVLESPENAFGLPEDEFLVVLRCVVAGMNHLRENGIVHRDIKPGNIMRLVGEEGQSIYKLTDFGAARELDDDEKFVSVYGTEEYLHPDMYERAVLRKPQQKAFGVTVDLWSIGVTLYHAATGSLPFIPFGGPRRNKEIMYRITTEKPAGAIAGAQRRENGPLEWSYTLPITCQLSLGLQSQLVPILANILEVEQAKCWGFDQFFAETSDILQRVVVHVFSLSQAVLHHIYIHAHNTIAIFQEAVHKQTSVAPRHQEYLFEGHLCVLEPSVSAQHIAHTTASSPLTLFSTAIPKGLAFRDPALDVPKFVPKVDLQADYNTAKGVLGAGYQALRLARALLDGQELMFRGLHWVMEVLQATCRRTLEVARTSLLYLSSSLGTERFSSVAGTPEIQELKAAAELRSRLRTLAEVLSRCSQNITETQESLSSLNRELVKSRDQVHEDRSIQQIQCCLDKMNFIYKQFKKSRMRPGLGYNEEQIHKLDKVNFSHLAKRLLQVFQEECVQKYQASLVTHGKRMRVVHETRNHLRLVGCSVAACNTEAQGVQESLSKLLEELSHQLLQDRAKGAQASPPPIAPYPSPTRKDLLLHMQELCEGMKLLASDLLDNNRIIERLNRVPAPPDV
Chain of Tyrosine-protein kinase receptor UFO (Homo sapiens) (P30530 whole entry, the tested form may be a part): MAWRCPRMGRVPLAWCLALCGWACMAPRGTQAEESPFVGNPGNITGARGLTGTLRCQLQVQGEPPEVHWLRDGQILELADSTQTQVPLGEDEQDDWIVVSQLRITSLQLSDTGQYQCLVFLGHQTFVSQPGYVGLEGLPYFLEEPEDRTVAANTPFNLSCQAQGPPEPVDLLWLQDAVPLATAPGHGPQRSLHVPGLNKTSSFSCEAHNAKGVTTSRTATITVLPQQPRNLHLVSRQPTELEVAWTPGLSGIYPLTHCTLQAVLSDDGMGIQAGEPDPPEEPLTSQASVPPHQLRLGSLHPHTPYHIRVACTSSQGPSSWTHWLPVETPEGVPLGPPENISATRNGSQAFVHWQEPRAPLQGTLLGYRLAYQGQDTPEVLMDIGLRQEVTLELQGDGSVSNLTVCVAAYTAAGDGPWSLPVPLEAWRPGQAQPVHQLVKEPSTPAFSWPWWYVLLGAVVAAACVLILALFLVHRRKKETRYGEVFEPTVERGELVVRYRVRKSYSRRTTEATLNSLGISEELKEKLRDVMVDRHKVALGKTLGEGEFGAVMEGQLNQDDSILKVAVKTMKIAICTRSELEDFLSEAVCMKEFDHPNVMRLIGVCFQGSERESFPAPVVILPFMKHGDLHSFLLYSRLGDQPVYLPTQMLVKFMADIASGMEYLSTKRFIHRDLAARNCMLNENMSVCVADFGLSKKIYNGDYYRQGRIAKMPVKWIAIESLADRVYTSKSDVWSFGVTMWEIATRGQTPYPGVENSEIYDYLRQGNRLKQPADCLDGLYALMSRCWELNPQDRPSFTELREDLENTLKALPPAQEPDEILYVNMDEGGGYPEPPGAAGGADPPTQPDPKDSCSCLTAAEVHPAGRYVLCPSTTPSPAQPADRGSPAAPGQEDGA
Chain of Serine/threonine-protein kinase tousled-like 1 (Homo sapiens) (Q9UKI8 whole entry, the tested form may be a part, canonical isoform): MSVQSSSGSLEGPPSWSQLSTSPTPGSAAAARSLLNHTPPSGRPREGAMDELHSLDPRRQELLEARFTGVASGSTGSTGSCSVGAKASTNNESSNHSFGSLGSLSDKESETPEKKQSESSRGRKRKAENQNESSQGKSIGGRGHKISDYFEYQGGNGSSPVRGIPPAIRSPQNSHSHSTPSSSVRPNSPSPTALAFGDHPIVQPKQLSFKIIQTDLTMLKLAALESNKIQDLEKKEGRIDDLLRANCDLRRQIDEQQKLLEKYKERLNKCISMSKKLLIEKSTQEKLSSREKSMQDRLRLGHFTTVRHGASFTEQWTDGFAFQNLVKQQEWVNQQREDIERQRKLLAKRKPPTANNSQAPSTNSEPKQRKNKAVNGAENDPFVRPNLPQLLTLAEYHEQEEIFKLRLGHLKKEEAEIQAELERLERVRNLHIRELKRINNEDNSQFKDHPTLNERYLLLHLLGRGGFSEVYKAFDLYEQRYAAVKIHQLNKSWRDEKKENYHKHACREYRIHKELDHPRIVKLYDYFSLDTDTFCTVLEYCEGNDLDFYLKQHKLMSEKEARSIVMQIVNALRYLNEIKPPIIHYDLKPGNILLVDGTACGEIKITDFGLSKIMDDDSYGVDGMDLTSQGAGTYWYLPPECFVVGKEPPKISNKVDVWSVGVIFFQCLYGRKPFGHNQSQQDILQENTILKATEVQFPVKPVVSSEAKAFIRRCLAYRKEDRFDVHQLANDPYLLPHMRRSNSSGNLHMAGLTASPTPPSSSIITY
Chain of Calcium/calmodulin-dependent protein kinase type 1D (Homo sapiens) (Q8IU85 whole entry, looked up, the tested form may be a part): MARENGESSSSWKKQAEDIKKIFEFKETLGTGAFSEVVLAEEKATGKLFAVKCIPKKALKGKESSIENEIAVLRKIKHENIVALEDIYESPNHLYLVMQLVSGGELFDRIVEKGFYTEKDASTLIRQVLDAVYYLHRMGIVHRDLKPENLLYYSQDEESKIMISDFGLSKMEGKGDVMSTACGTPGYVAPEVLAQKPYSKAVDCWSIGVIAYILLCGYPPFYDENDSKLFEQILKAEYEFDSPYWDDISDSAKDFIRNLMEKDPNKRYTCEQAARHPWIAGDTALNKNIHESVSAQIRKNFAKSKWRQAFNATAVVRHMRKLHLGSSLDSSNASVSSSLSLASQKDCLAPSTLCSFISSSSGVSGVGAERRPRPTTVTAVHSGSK

On to `CCOc1nc(Nc2ccc(C(=O)N3CCOCC3)cc2OC)nc2[nH]ccc12`, for which the Activity is 80.4% in experiment [1]; 88.9% in experiment [2]; 92.8% in experiment [3]; 90.6% in experiment [4]; 93.1% in [5]; 106% in experiment [6]. The Activity in experiment [7] turned out to be 100%; in experiment [8], 7.52%; in [9], 98.1%; in experiment [10], 80.2%; in experiment [11] it was 96.4%; in experiment [12], 71.8%. Besides, the Activity in experiment [13] worked out at 96.5%; in [14], 97.5%; in [15], 93.9%; in [16], 96.9%; in experiment [17], 109%; in experiment [18] it was 122%. For the same compound, in experiment [19], the Activity amounted to 88.8%.

Values taken from ChEMBL document CHEMBL4715821, “Discovery of 4-ethoxy-7H-pyrrolo[2,3-d]pyrimidin-2-amines as potent, selective and orally bioavailable LRRK2 inhibitors” (Bioorg Med Chem Lett, 2018).
